In USRE38200E1, “Indole-2,3-dione-3-oxime derivatives” (NeuroSearch A/S, priority 1996, dated 2003):
pIC50: −log10 of the molar value. Counter-ions that a name gives are not always drawn.

Legend:
[1] = molecular target: AMPA receptor; assay: 3H-AMPA binding (in vitro receptor affinity test); parameters: species or system rat; settings: cerebral cortex membranes from male Wistar rats; 3H-AMPA 5 nM; 30 minutes at 2° C.; read-out: IC50 (concentration of the test substance which inhibits the specific binding of 3H-AMPA by 50%)
Description: In an in vitro activity (receptor affinity) test, the chemical compounds of the present invention have been tested for their affinity for the AMPA receptor.
L-glutamate (GLU) is the major excitatory neurotransmitter in the mammalian central nervous system. From electro-physiological- and binding studies, there appear to be at least three subtypes of GLU receptors, tentatively named N-methyl-D-aspartate (NMDA) receptors, quisqualate receptors and kainate receptors. AMPA has been known for several years to be a potent and selective agonist at the traditionally named quisqualate receptors. Activation of quisqualate receptors by AMPA is associated with Na^+influx and K^+efflux leading to depolarisation. ^3H-AMPA is a selective radioligand for labelling the ionotropic quisqualate (AMPA) receptors.
Preparations are performed at 0-4° C. unless otherwise indicated. Cerebral cortex from male Wistar rats (150-200 g) is homogenised for 5-10 sec in 20 ml Tris-HCl (30 mM, pH 7.4) using an Ultra-Turrax™ homogeniser. The suspension is centrifuged at 27,000×g for 15 minutes and the pellet is washed three times with buffer (centrifuged at 27,000×g for 10 minutes). The washed pellet is homogenised in 20 ml of buffer and incubated on a water bath (of 37° C.) for 30 minutes to remove endogenous glutamate and then centrifuged for 10 minutes at 27,000×g. The pellet is then homogenised in buffer and centrifuged at for 10 minutes at 27,000×g. The final pellet is resuspended in 30 ml buffer and the preparation is frozen and stored at −20° C.
The membrane preparation is thawed and centrifuged at 2° C. for 10 minutes at 27,000×g. […] Non-specific binding is determined using L-glutamate (0.6 mM, final concentration).
After incubation the 550 μl samples are added 5 ml of ice-cold buffer and poured directly onto Whatman™ GF/C glass fibre filters under suction and immediately washed with 5 ml of ice-cold buffer. […] The amount of radioactivity on the filters is determined by conventional liquid scintillation counting. […]

| SMILES | pIC50 [1] | melting point |
| --- | --- | --- |
| CN1CCc2c(-c3ccc(S(=O)(=O)N(C)C)cc3)cc3c(c2C1)NC(=O)C3=NOC(CCO)C(=O)O (centres unmarked) [8-methyl-5-(4-(N,N-dimethylsulfamoyl)phenyl)-6-7-8-9-tetrahydro-1H-pyrrolo[3,2-h]-isoquinoline-2,3-dione-3-O-(4-hydroxybutyric acid-2-yl)oxime sodium salt] | 7.30 | – |
| CCOC(=O)CO/N=C1\C(=O)Nc2c1cc(-c1ccc(S(=O)(=O)N(C)C)cc1)c1c2CN(C)CC1 [8-methyl-5-(4-(N,N-dimethylsulfamoyl)phenyl-6,7,8,9-tetrahydro-1H-pyrrolo [3,2-h]isoquinoline-2,3-dione-3-O-(ethoxycarbonylmethyl) oxime] | 7.00 | – |
| CN1CCc2c(-c3ccc(S(=O)(=O)N(C)C)cc3)cc3c(c2C1)NC(=O)C3=NOC1CCOC1=O (centres unmarked) [8-methyl-5-(4-(N,N-dimethylsulfamoyl)phenyl)-6-7-8-9-tetrahydro-1H-pyrrolo[3,2-h]-isoquinoline-2,3-dione-3-O-(3-(2-oxo)tetrahydrofuryl) oxime, hydrochloride] | 6.82 | – |
| CN1CCc2c(-c3ccc(S(=O)(=O)N(C)C)cc3)cc3c(c2C1)NC(=O)C3=NOC1CCOC1=O (centres unmarked) (as salt: hydrochloride) [8-methyl-5-(4-(N,N-dimethylsulfamoyl)phenyl)-6-7-8-9-tetrahydro-1H-pyrrolo[3,2-h]-isoquinoline-2,3-dione-3-O-(3-(2-oxo)tetrahydrofuryl) oxime, hydrochloride] | – | 245 °C (dec.) |
| CN1CCc2c(-c3ccc(S(=O)(=O)N(C)C)cc3)cc3c(c2C1)NC(=O)C3=NOC(CCO)C(=O)O (centres unmarked) (as salt: sodium) [8-methyl-5-(4-(N,N-dimethylsulfamoyl)phenyl)-6-7-8-9-tetrahydro-1H-pyrrolo[3,2-h]-isoquinoline-2,3-dione-3-O-(4-hydroxybutyric acid-2-yl)oxime sodium salt] | – | > 200 °C (dec.) |
